Results taken from the supplement of paper PMC8671470.
± gives the standard deviation of the averaged measurements.

Tested on: HL-60
Test: cell viability (% survival relative to DMSO control); higher = less cytotoxic
Conditions: 72 h
Outline: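 A rescreen of the full library used HL-60 cells in RPMI 1640 with 10% FBS on 384-well plates, run in duplicate at five tenfold concentrations (1–10,000 nM). Each screen included DMSO or 100 nM of one of three metabolic inhibitors and ran 72 h at 37 °C, 5% CO2. CellTiter-Glo viability was scaled between DMSO and 10 μM proteasome-inhibitor wells. Any area under the curve comes from four-parameter log-logistic fits with drc and PharmacoGx.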

[1] = 0.001 µM, co-treatment: AZD3965 100 nM
[2] = 0.001 µM, co-treatment: DMSO vehicle
[3] = 0.001 µM, co-treatment: GSK2194069 100 nM
[4] = 0.001 µM, co-treatment: pictilisib 100 nM
[5] = 0.01 µM, co-treatment: AZD3965 100 nM
[6] = 0.01 µM, co-treatment: DMSO vehicle
[7] = 0.01 µM, co-treatment: GSK2194069 100 nM
[8] = 0.01 µM, co-treatment: pictilisib 100 nM
[9] = 0.1 µM, co-treatment: AZD3965 100 nM
[10] = 0.1 µM, co-treatment: DMSO vehicle
[11] = 0.1 µM, co-treatment: GSK2194069 100 nM
[12] = 0.1 µM, co-treatment: pictilisib 100 nM
[13] = 1 µM, co-treatment: AZD3965 100 nM
[14] = 1 µM, co-treatment: DMSO vehicle
[15] = 1 µM, co-treatment: GSK2194069 100 nM
[16] = 1 µM, co-treatment: pictilisib 100 nM
[17] = 10 µM, co-treatment: AZD3965 100 nM
[18] = 10 µM, co-treatment: DMSO vehicle
[19] = 10 µM, co-treatment: GSK2194069 100 nM
[20] = 10 µM, co-treatment: pictilisib 100 nM

Compound	cell viability [1]	cell viability [2]	cell viability [3]	cell viability [4]	cell viability [5]	cell viability [6]	cell viability [7]	cell viability [8]	cell viability [9]	cell viability [10]	cell viability [11]	cell viability [12]	cell viability [13]	cell viability [14]	cell viability [15]	cell viability [16]	cell viability [17]	cell viability [18]	cell viability [19]	cell viability [20]
CC(Cc1ccc(O)c(O)c1)C(C)Cc1ccc(O)c(O)c1 (stereo not given) [Masoprocol]	103 ± 4.1%	101.9 ± 0.67%	102 ± 9.7%	102 ± 5.4%	100 ± 7.9%	98.1 ± 2.7%	100.9 ± 0.44%	89.6 ± 7.2%	98.5 ± 1.4%	96.29 ± 0.34%	98.6 ± 2.7%	94 ± 5.3%	92.8 ± 4.1%	99.3 ± 1.9%	96.6 ± 4.1%	86.4 ± 1.2%	10.8 ± 0.34%	12.9 ± 3.7%	21.8 ± 0.43%	4.58 ± 1%
N[C@](CCCCB(O)O)(CCN1CCCCC1)C(=O)O [Arginase inhibitor 1]	94.6 ± 14%	102.5 ± 0.45%	91.7 ± 12%	87.5 ± 14%	98.6 ± 5.9%	97.3 ± 2%	100 ± 5.7%	94.4 ± 4.9%	99.9 ± 2.7%	102 ± 3.7%	109.7 ± 0.86%	98.3 ± 3%	99.151 ± 0.014%	98.12 ± 0.95%	90.6 ± 12%	90.8 ± 6.9%	102.3 ± 0.42%	103 ± 7.5%	101 ± 6.6%	99.5 ± 2.6%
[N-]=[N+]=CC(=O)CC[C@H](N)C(=O)O [6-Diazo-5-oxo-L-norleucine]	97.4 ± 11%	98.1 ± 2.5%	96.8 ± 8.2%	86.7 ± 24%	97.3 ± 4.9%	100.1 ± 0.89%	101 ± 3.5%	102 ± 4.2%	111 ± 13%	103 ± 1.3%	105 ± 9.1%	102 ± 3.5%	100.44 ± 0.019%	101 ± 2.2%	103 ± 6.7%	105 ± 7.1%	100 ± 1.3%	101 ± 2.1%	101.3 ± 0.3%	87.8 ± 10%
O=C(COc1ccc(C(=O)c2ccccc2)cc1)NC1CCN(Cc2ccccc2)CC1 [AdipoRon]	101 ± 1.2%	99.7 ± 4.2%	105 ± 6.7%	97.7 ± 7.3%	99.9 ± 9.8%	100.3 ± 0.47%	103 ± 5.5%	104 ± 8%	106 ± 2%	104 ± 5.3%	101 ± 3.1%	97.7 ± 3.8%	98.45 ± 0.62%	80.8 ± 30%	92.1 ± 7.6%	92.4 ± 10%	105 ± 3.6%	105 ± 5.4%	93.3 ± 6.3%	91.2 ± 1.6%
CCN(CC)CCN(Cc1ccc(-c2ccc(C(F)(F)F)cc2)cc1)C(=O)Cn1c(SCc2ccc(F)cc2)nc(=O)c2c1CCC2 [Darapladib]	96.2 ± 14%	103.1 ± 0.25%	98.7 ± 14%	85.9 ± 27%	100 ± 3.4%	99.55 ± 0.55%	97.8 ± 1.3%	97.2 ± 7%	104 ± 1.6%	101 ± 6.2%	99.8 ± 1.8%	102 ± 4.5%	93.7 ± 2.3%	96.27 ± 0.22%	84.4 ± 10%	97.3 ± 7.4%	-1.351 ± 0.0054%	-2.41 ± 0.42%	-2.4 ± 0.029%	-2.26 ± 0.088%
O=C1Nc2ccccc2/C1=C\NCCc1ccc(O)c(O)c1 [AC1NZZMF]	95.6 ± 7.7%	103 ± 1.8%	99.4 ± 2.7%	102 ± 6.3%	90.2 ± 23%	100.1 ± 0.38%	98.5 ± 11%	110 ± 4.9%	102 ± 4%	102 ± 1.2%	100 ± 1.1%	97.2 ± 13%	105 ± 8.5%	102.2 ± 0.11%	99 ± 0.43%	103 ± 13%	87.9 ± 9.7%	100.97 ± 0.1%	95.4 ± 1.8%	74.1 ± 3.9%
CCOC(=O)[C@@]1(CCCCCCOc2ccc(Cl)cc2)CO1 [Etomoxir]	102.9 ± 0.64%	103 ± 1.2%	106 ± 3.9%	100 ± 5.9%	84.3 ± 34%	99.54 ± 0.17%	92 ± 16%	80.2 ± 27%	106 ± 3.8%	102 ± 3.4%	103.8 ± 0.98%	113 ± 5%	87.5 ± 11%	86.5 ± 21%	77.9 ± 16%	102 ± 3.8%	109 ± 1.6%	106 ± 1.7%	100 ± 6.6%	98 ± 6.5%
Cc1ccc(S(=O)(=O)NC2c3ccccc3Oc3ccccc32)cc1 [AH-7614]	100 ± 1.6%	100 ± 0.64%	104 ± 2.2%	104.2 ± 0.15%	99.6 ± 0.97%	100.5 ± 0.4%	101 ± 2.9%	90.6 ± 8.2%	102 ± 4.4%	100.4 ± 0.53%	96.8 ± 5.2%	96.6 ± 2.9%	97.3 ± 4.8%	102.5 ± 0.72%	95.1 ± 9.7%	92.2 ± 15%	95.8 ± 1.2%	96.04 ± 0.12%	97.2 ± 3.4%	96.4 ± 7%
O=P(O)(O)C(O)(Cn1ccnc1)P(=O)(O)O [Zoledronic acid]	102 ± 2.9%	98.3 ± 11%	91.7 ± 49%	81.3 ± 24%	101 ± 2.4%	99.8 ± 2.5%	92.3 ± 6.2%	98.9 ± 1.2%	102 ± 2.3%	101 ± 1.7%	95.8 ± 4.7%	100 ± 9.7%	101 ± 2.5%	105.3 ± 0.2%	103 ± 14%	108 ± 12%	98 ± 3.6%	101 ± 5.2%	80 ± 26%	98 ± 7.6%
c1ccc2c(c1)OCC(=C1NCCN1)O2 [Idazoxan]	103 ± 1.6%	99.03 ± 0.46%	99.9 ± 1.9%	104 ± 1.9%	98 ± 3.2%	101.2 ± 0.3%	101 ± 1.7%	102 ± 1.5%	102 ± 3.3%	100.8 ± 0.84%	101.2 ± 0.31%	93 ± 1.3%	96 ± 5.5%	101 ± 1.5%	98.4 ± 4.8%	95.1 ± 1.4%	100 ± 2.2%	98.4 ± 3.7%	99.15 ± 0.27%	98.7 ± 9.1%
C[C@]12CC[C@H](O)CC1=CC[C@@H]1[C@@H]2CC[C@]2(C)C(c3cccnc3)=CC[C@@H]12 [Abiraterone]	109 ± 10%	97.8 ± 1.5%	106.3 ± 0.78%	104 ± 14%	103 ± 1.9%	98 ± 2.3%	96.1 ± 4.2%	102 ± 8%	93.4 ± 14%	93.1 ± 11%	86.9 ± 16%	84.9 ± 22%	100.2 ± 0.73%	97.9 ± 1.7%	107 ± 11%	99.5 ± 8.8%	103 ± 5.8%	105 ± 5.8%	105 ± 8.8%	108 ± 1.3%
